Results: PubChem BioAssay AID1259407 (Chemical Carcinogenesis Research Information System (CCRIS), 2018)
The source made the active and inactive calls. The rule behind the calls is not given here.

Test system: CCRIS mutagenicity, Ames/micronucleus/aberration tests
Test: CCRIS mutagenicity studies
Description: The CCRIS database contains chemical records with carcinogenicity, mutagenicity, tumor promotion, and tumor inhibition test results. It was developed by the National Cancer Institute (NCI). Data are derived from studies cited in primary journals, current awareness tools, NCI reports, and other sources. Test results have been reviewed by experts in carcinogenesis and mutagenesis.
CCRIS provides historical information from the years 1985 - 2011. It is no longer updated.
This is an archive assay for CCRIS mutagenicity studies.

[1] = Test System: AMES SALMONELLA TYPHIMURIUM, Strain/Indicator: TA98, Metabolic Activation: NONE, Method: STANDARD PLATE
[2] = Test System: AMES SALMONELLA TYPHIMURIUM, Strain/Indicator: TA100, Metabolic Activation: NONE, Method: STANDARD PLATE
[3] = Test System: AMES SALMONELLA TYPHIMURIUM, Strain/Indicator: TA98, Metabolic Activation: RAT, LIVER, S-9, AROCLOR 1254, Method: STANDARD PLATE
[4] = Test System: AMES SALMONELLA TYPHIMURIUM, Strain/Indicator: TA100, Metabolic Activation: RAT, LIVER, S-9, AROCLOR 1254, Method: STANDARD PLATE

Measured: mutagenic call

COc1ccc(-c2nc(-c3ccc(C)cc3C)[nH]c2-c2ccc(OC)cc2)cc1
inactive: Test System: AMES SALMONELLA TYPHIMURIUM, Strain/Indicator: TA98, Metabolic Activation: RAT LIVER S-9, 3-METHYLCHOLANTHRENE, SODIUM PHENOBARBITAL, Method: STANDARD PLATE inactive; negative | Test System: AMES SALMONELLA TYPHIMURIUM, Strain/Indicator: TA100, Metabolic Activation: RAT LIVER S-9, 3-METHYLCHOLANTHRENE, SODIUM PHENOBARBITAL, Method: STANDARD PLATE inactive; negative
active: [1] active; positive | [2] active; positive

CCCCOCC=O
active: Test System: CHINESE HAMSTER V-79, Strain/Indicator: V-79 (HPRT)/6-THIOGUANINE, Metabolic Activation: NONE active; positive
inactive: Test System: AMES SALMONELLA TYPHIMURIUM, Strain/Indicator: TA97A, Metabolic Activation: NONE, Method: STANDARD PLATE inactive; negative | Test System: AMES SALMONELLA TYPHIMURIUM, Strain/Indicator: TA97A, Metabolic Activation: RAT, LIVER, S-9, AROCLOR 1254, Method: STANDARD PLATE inactive; negative | [1] inactive; negative | [3] inactive; negative | [2] inactive; negative | [4] inactive; negative | Test System: AMES SALMONELLA TYPHIMURIUM, Strain/Indicator: TA102, Metabolic Activation: NONE, Method: STANDARD PLATE inactive; negative | Test System: AMES SALMONELLA TYPHIMURIUM, Strain/Indicator: TA102, Metabolic Activation: RAT, LIVER, S-9, AROCLOR 1254, Method: STANDARD PLATE inactive; negative | Test System: CHINESE HAMSTER OVARY, Strain/Indicator: CHO-AS52/6-THIOGUANINE, Metabolic Activation: NONE inactive; negative

Nc1cc(CCO)c(N)c([N+](=O)[O-])c1
active: [1] active; positive | [3] active; positive | [4] active; positive | Test System: AMES SALMONELLA TYPHIMURIUM, Strain/Indicator: TA1538, Metabolic Activation: NONE, Method: STANDARD PLATE active; positive | Test System: AMES SALMONELLA TYPHIMURIUM, Strain/Indicator: TA1538, Metabolic Activation: RAT, LIVER, S-9, AROCLOR 1254, Method: STANDARD PLATE active; positive
inactive: [2] inactive; negative | Test System: AMES SALMONELLA TYPHIMURIUM, Strain/Indicator: TA1535, Metabolic Activation: NONE, Method: STANDARD PLATE inactive; negative | Test System: AMES SALMONELLA TYPHIMURIUM, Strain/Indicator: TA1535, Metabolic Activation: RAT, LIVER, S-9, AROCLOR 1254, Method: STANDARD PLATE inactive; negative | Test System: AMES SALMONELLA TYPHIMURIUM, Strain/Indicator: TA1537, Metabolic Activation: NONE, Method: STANDARD PLATE inactive; negative | Test System: AMES SALMONELLA TYPHIMURIUM, Strain/Indicator: TA1537, Metabolic Activation: RAT, LIVER, S-9, AROCLOR 1254, Method: STANDARD PLATE inactive; negative

Cc1oc(=O)oc1COC(=O)[C@@H]1N2C(=O)[C@@H](NC(=O)[C@H](N)c3ccccc3)[C@H]2SC1(C)C
inactive: Test System: AMES SALMONELLA TYPHIMURIUM, Strain/Indicator: TA98, Metabolic Activation: NONE, Method: PREINCUBATION inactive; negative | Test System: AMES SALMONELLA TYPHIMURIUM, Strain/Indicator: TA98, Metabolic Activation: RAT, LIVER, S-9, PHENOBARBITAL AND 5,6-BENZOFLAVONE, Method: PREINCUBATION inactive; negative | Test System: AMES SALMONELLA TYPHIMURIUM, Strain/Indicator: TA100, Metabolic Activation: NONE, Method: PREINCUBATION inactive; negative | Test System: AMES SALMONELLA TYPHIMURIUM, Strain/Indicator: TA100, Metabolic Activation: RAT, LIVER, S-9, PHENOBARBITAL AND 5,6-BENZOFLAVONE, Method: PREINCUBATION inactive; negative | Test System: AMES SALMONELLA TYPHIMURIUM, Strain/Indicator: TA1535, Metabolic Activation: NONE, Method: PREINCUBATION inactive; negative | Test System: AMES SALMONELLA TYPHIMURIUM, Strain/Indicator: TA1535, Metabolic Activation: RAT, LIVER, S-9, PHENOBARBITAL AND 5,6-BENZOFLAVONE, Method: PREINCUBATION inactive; negative | Test System: AMES SALMONELLA TYPHIMURIUM, Strain/Indicator: TA1537, Metabolic Activation: NONE, Method: PREINCUBATION inactive; negative | Test System: AMES SALMONELLA TYPHIMURIUM, Strain/Indicator: TA1537, Metabolic Activation: RAT, LIVER, S-9, PHENOBARBITAL AND 5,6-BENZOFLAVONE, Method: PREINCUBATION inactive; negative | Test System: AMES SALMONELLA TYPHIMURIUM, Strain/Indicator: TA1538, Metabolic Activation: NONE, Method: PREINCUBATION inactive; negative | Test System: AMES SALMONELLA TYPHIMURIUM, Strain/Indicator: TA1538, Metabolic Activation: RAT, LIVER, S-9, PHENOBARBITAL AND 5,6-BENZOFLAVONE, Method: PREINCUBATION inactive; negative | Test System: E. COLI, Strain/Indicator: WP2 UVRA, Metabolic Activation: NONE, Method: PREINCUBATION inactive; negative | Test System: E. COLI, Strain/Indicator: WP2 UVRA, Metabolic Activation: RAT, LIVER, S-9, AROCLOR 1254, Method: PREINCUBATION inactive; negative
